In this test the target is T1, TRPV3 (G573C) (Homo sapiens, UniProt Q8NET8, G573C).
T1 construct: host or cells: HEK 293T (transient transfection, pEGFP-N1 co-transfected as a marker)
T1 sequence (Q8NET8 1-790 G573C): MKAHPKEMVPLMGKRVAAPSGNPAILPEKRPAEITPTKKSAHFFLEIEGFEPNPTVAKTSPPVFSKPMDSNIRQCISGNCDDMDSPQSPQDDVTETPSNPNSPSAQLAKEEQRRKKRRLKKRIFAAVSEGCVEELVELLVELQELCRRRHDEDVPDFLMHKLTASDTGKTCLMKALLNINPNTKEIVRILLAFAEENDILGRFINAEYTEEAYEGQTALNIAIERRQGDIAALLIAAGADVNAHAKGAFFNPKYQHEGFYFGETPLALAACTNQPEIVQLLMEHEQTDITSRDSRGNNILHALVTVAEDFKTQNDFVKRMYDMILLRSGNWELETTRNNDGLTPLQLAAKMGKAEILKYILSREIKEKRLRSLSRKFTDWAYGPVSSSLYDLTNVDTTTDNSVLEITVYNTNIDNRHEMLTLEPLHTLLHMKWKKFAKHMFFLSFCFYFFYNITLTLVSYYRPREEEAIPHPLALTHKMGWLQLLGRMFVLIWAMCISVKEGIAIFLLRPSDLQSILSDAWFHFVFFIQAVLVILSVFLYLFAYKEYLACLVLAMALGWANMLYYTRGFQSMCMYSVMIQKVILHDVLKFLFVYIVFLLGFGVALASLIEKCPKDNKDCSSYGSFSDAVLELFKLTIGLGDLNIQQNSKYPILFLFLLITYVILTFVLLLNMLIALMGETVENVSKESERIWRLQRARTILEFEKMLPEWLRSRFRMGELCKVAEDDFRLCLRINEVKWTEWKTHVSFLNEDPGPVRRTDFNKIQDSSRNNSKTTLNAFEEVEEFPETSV
Description: Whole-cell patch-clamp, spontaneous current of TRPV3 G573C mutant in HEK 293T cells. The class given is cell-based. The settings on record: −100 mV, read-out: IC50, inhibition of spontaneous current of TRPV3 G573C mutant. As for the experimental part: For electrophysiology recording and calcium measurement, 10 µM 74a (a TRPV3 inhibitor) was added about 6 h after transfection to inhibit channel activities and prevent cell death. First, the electrophysiology activities of the mutations were recorded using a whole-cell patch-clamp. Our data presented spontaneous TRPV3 currents when −100 mV to 100 mV ramp pulses were applied, which dramatically declined with the addition of 1 µM alpha-mangostin (Figure 4A).
Figure 4 Alpha-mangostin inhibited the activity of hyperactive TRPV3 mutant channels and rescued mutation-induced cell death. (A) Alpha-mangostin inhibited the channel current in representative TRPV3 (G573S)- and TRPV3 (G573C)-expressing HEK 293T cells. […] Currents were normalized to the response at −100 mV before adding alpha-mangostin. (C) Alpha-mangostin inhibited TRPV3-mediated intracellular calcium increase in TRPV3 (G573S)-expressing HEK 293T cells. […] The bar graph on the right summarizes the change in the intracellular calcium rise inhibited by alpha-mangostin. […]
In the whole-cell configuration, voltage ramps from −100 to +100 mV over 1 s were applied every 20 s and the holding potential was set at 0 mV. Sampling at 10 kHz and low-pass filtering at 5 kHz (w-c) were applied for all recorded currents. Recorded data were analyzed using Clampfit ver. […]
On the technique in general: In patch-clamp work, channel activity is measured electrically.

Experimental findings from paper PMC10455244, “Alpha-Mangostin: A Potent Inhibitor of TRPV3 and Pro-Inflammatory Cytokine Secretion in Keratinocytes” (International Journal of Molecular Sciences, 2023) are described below.

Structures are written as SMILES.

As a reminder, the IC50 is the concentration at which inhibition is half-maximal.

As to `COc1c(O)cc2oc3cc(O)c(CC=C(C)C)c(O)c3c(=O)c2c1CC=C(C)C` [Alpha-mangostin], the concentration for half-maximal inhibition (IC50) is 1.94 ± 0.4 µM.
